The values that follow come from patent US12043674B2, “Synthetic cyclic peptides and methods of preparation and use thereof” (Auburn University, priority 2020, dated 2024).

One may read the half-life as how long it takes for the measured level to halve.

Data set [1] in a line: CyClick: N-terminal amine condenses with side-chain or C-terminal aldehyde (or ketone) to a cyclic imine, then the residue-2 amide N attacks to give a 4-imidazolidinone; DMAP (7 equiv). To be noted: H2O/DMF 1:1, 5.0 mM, 25.0 °C.
For data set [2], the target named is chymotrypsin (Bos taurus, UniProt P00766). In words: Enzymatic degradation study: proteolytic stability on incubation with chymotrypsin (HPLC, LCMS). The data set is classed as in vitro ADME. The following applies: for remaining at 5 min, 1.5 mM / remaining at 0.25 h, 1.5 mM / remaining at 0.5 h, 1.5 mM / remaining at 0.75 h, 1.5 mM / remaining at 1 h, 1.5 mM / remaining at 1.5 h, 1.5 mM / remaining at 2 h, 1.5 mM / remaining at 8 h, 1.5 mM: chymotrypsin (isolated protease) in Tris buffer, read-out: enzyme degradation studies, peptide at time point; for remaining at 5 min, 1.5 mM / remaining at 0.25 h, 1.5 mM / remaining at 0.5 h, 1.5 mM / remaining at 0.75 h, 1.5 mM / remaining at 1 h, 1.5 mM / remaining at 1.5 h, 1.5 mM / remaining at 2 h, 1.5 mM / remaining at 8 h, 1.5 mM / enzyme degradation studies, peptide at time point: chymotrypsin, 10 mM Tris buffer pH 7.5, peptide 1.5 mM; for remaining at 0.25 h, 1.5 mM: time 15 min; for remaining at 0.5 h, 1.5 mM: time 30 min; for remaining at 0.75 h, 1.5 mM: time 45 min; for remaining at 1 h, 1.5 mM: time 60 min; for remaining at 1.5 h, 1.5 mM: time 90 min; for remaining at 2 h, 1.5 mM: time 120 min; for remaining at 8 h, 1.5 mM: time 480 min; for enzyme degradation studies, peptide at time point: time 0 min. The protocol: FIG. 25, comprising FIG. 25A through FIG. 25C, depicts representative enzymatic Degradation Studies. Linear peptide AVGPFEY (SEQ ID NO: 13) and cyclic peptide cyc(AVGPFEY) (SEQ ID NO: 13) 2a were individually dissolved in 10 mM Tris buffer pH 7.5 (final conc. 1.5 mM). A chymotrypsin stock solution was created by the addition of 1 mg chymotrypsin in 100 μL CaCl2 (0.01 M), 100 μL tris buffer (0.1 M pH 7.5), 100 μL HCl (1 mM). 10 μL of the chymotrypsin stock solution was added to both linear peptide AVGPFEY (SEQ ID NO: 13) and cyclic peptide cyc(AVGPFEY) (SEQ ID NO: 13) 2a solutions. Samples (100 μL) were taken after regular intervals of time from both linear and cyclic peptide solutions. 100 μL of each sample was quenched with 400 μL of frozen water and solutions were frozen at −80° C. at the following time intervals: 0 min, 5 min, 15 min, 30 min, 45 min, 60 min, 90 min, 120 min, and 480 min. Each sample was lyophilized and analyzed using HPLC and LCMS. FIG. 25A depicts a schematic representation of the enzyme degradation of cyclic peptide cyc(AVGPFEY) (SEQ ID NO: 13) 2a. FIG. 25B depicts a schematic representation of the enzyme degradation of linear peptide 1a. FIG. 25C depicts representative HPLC data of various time aliquots of the enzyme degradation of linear peptide 1a.
To evaluate the potential of 4-imidazolidinone cyclic peptides for biological applications, the proteolytic stability of a cyclic peptide cyc(AVGPFEY) (SEQ ID NO: 13) 2a in comparison with its linear counterpart AVGPFEY (SEQ ID NO: 13) was examiner. Linear peptide AVGPFEY ID NO: 13) and cyclic peptide cyc(AVGPFEY) (SEQ ID NO: 13) 2a were incubated with chymotrypsin, which hydrolyzes peptide bonds at the C-terminal side of aromatic residues, such as Phe.

Experiment in data set [3]: as above
The data set is classed as in vitro ADME. The following applies: chymotrypsin (isolated protease) in Tris buffer, pH 7.5; up to 24 h; HPLC and MS analysis; read-out: cleavage observed in the presence of chymotrypsin.

Data set [4] is described as follows: Stability of 4-imidazolidinone cyclic peptide under different pH conditions (hydrolysis/degradation, HPLC). The data set is classed as physicochemical. To be noted: 10 mM phosphate buffer, pH 3.5, 5.5, 7.5, 8.5, 10.5, room temperature, up to 24 h. The protocol: FIG. 22, comprising FIG. 22A through FIG. 22D, depicts representative effects of 4-imidazolidinone in cyclic peptides. FIG. 22A depicts representative VT-NMR spectra of head-to-tail 4-imidazolidinone cyclic peptide 4a in aqueous solutions. FIG. 22B depicts representative turn structure of 4-imidazolidinone cyclic peptide 4a obtained by running ForceGen (Jain A N et al., 2019, J. Comput.-Aided Mol. Des., 33:531) with NMR constraints. […] Cyclic peptide cyc(NVGPFEY) (SEQ ID NO: 19) 2f (2.5 mg) was dissolved in H2O to form a stock solution (500 μL, conc. 7 mM). 100 μL of the stock was added to 400 μL of sodium phosphate buffer (10 mM) at the following pH values: 3.5, 5.5, 7.5, 8.5, 10.5 (total conc. 1.4 mM). The reactions were shaken at room temperature. Samples were analyzed by injecting them in HPLC after regular intervals of time. […] FIG. 22D depicts representative proteolytic stability of 4-imidazolidinone cyclic peptide 2a as compared to its linear counterpart.
The stability of cyclic peptides is a major concern, for pharmaceutical applications. To evaluate the stability of a 4-imidazolidinone cyclic peptide, cyclic peptide cyc(NVGPFEY) (SEQ ID NO: 19) 2f was incubated under different pH conditions.

Entries after “also recorded” stand apart in the source; their conditions may differ. Ends that are not written are not given here.

Consider `C[C@@H]1NC2[C@H](C)NC(=O)[C@@H]3CCCN3C(=O)CNC(=O)[C@H](Cc3ccccc3)N2C1=O` (stereo partly drawn) [H-Ala-Phe-Gly-Pro-Ala-H (C-terminal aldehyde)], for which the ring closure, conversion by HPLC in data set [1] (from C[C@H](N)C(=O)N[C@@H](Cc1ccccc1)C(=O)NCC(=O)N1CCC[C@H]1C(=O)N[C@@H](C)C=O, 12-membered ring) was determined as 71%.
For `CC(C)[C@H]1C(=O)NCC(=O)N2CCC[C@H]2C(=O)N[C@@H](Cc2ccccc2)C(=O)N[C@H](C(=O)N[C@@H](Cc2ccc(O)cc2)C(N)=O)CCC(=O)NC[C@@H]2N[C@@H](C)C(=O)N21` [2a, cyc(Ala-Val-Gly-Pro-Phe-Glu)Tyr], in data set [2], the remaining at 5 min, 1.5 mM was 100%; the remaining at 0.25 h, 1.5 mM came to 100%; the remaining at 0.5 h, 1.5 mM was 100%; the remaining at 0.75 h, 1.5 mM worked out at 100%. Besides, in data set [2], the remaining at 1 h, 1.5 mM came out at 100%; the remaining at 1.5 h, 1.5 mM is 100%; the remaining at 2 h, 1.5 mM came to 100%; the remaining at 8 h, 1.5 mM turned out to be 91.9%. Further, the enzyme degradation studies, peptide at time point in data set [2] is 100%. In data set [3], the metabolised at 24 h, 1.5 mM turned out to be 20%.
Regarding `CC(C)[C@H]1C(=O)NCC(=O)N2CCC[C@H]2C(=O)N[C@@H](Cc2ccccc2)C(=O)N[C@H](C(=O)N[C@@H](Cc2ccc(O)cc2)C(N)=O)CCC(=O)NCC2N[C@@H](CC(N)=O)C(=O)N21` (stereo partly drawn) [H-Asn-Val-Gly-Pro-Phe-Glu(NH-CH2-CHO)-Tyr-NH2], in data set [1] (from CC(C)[C@H](NC(=O)[C@@H](N)CC(N)=O)C(=O)NCC(=O)N1CCC[C@H]1C(=O)N[C@@H](Cc1ccccc1)C(=O)N[C@@H](CCC(=O)NCC=O)C(=O)N[C@@H](Cc1ccc(O)cc1)C(N)=O, 20-membered ring, 16.0 h), the ring closure, conversion by HPLC turned out to be 85%.
On to `CC(C)[C@H]1C(=O)NCC(=O)N2CCC[C@H]2C(=O)N[C@@H](Cc2ccccc2)C(=O)N[C@H](C(=O)N[C@@H](Cc2ccc(O)cc2)C(N)=O)CCC(=O)NCC2N[C@@H](CO)C(=O)N21` (stereo partly drawn) [H-Ser-Val-Gly-Pro-Phe-Glu(NH-CH2-CHO)-Tyr-NH2], for which the ring closure, conversion by HPLC in data set [1] (from CC(C)[C@H](NC(=O)[C@@H](N)CO)C(=O)NCC(=O)N1CCC[C@H]1C(=O)N[C@@H](Cc1ccccc1)C(=O)N[C@@H](CCC(=O)NCC=O)C(=O)N[C@@H](Cc1ccc(O)cc1)C(N)=O, 20-membered ring) is 100%.
As for `CC(C)[C@H]1C(=O)NCC(=O)N2CCC[C@H]2C(=O)N[C@@H](Cc2ccccc2)C(=O)N[C@H](C(=O)N[C@@H](Cc2ccc(O)cc2)C(N)=O)CCC(=O)NCC2N[C@@H](C)C(=O)N21` (stereo partly drawn) [H-Ala-Val-Gly-Pro-Phe-Glu(NH-CH2-CHO)-Tyr-NH2], the ring closure, conversion by HPLC in data set [1] (from CC(C)[C@H](NC(=O)[C@H](C)N)C(=O)NCC(=O)N1CCC[C@H]1C(=O)N[C@@H](Cc1ccccc1)C(=O)N[C@@H](CCC(=O)NCC=O)C(=O)N[C@@H](Cc1ccc(O)cc1)C(N)=O, 20-membered ring, 8.0 h) turned out to be 99%.
Regarding `CC(C)[C@H]1C(=O)NCC(=O)N2CCC[C@H]2C(=O)N[C@@H](Cc2ccccc2)C(=O)N[C@H](C(=O)N[C@@H](Cc2ccc(O)cc2)C(N)=O)CCCCNC(=O)CCC2(C)N[C@@H](C)C(=O)N12` (stereo partly drawn) [H-Ala-Val-Gly-Pro-Phe-Lys(levulinoyl)-Tyr-NH2], the ring closure, conversion by HPLC in data set [1] (from CC(=O)CCC(=O)NCCCC[C@H](NC(=O)[C@H](Cc1ccccc1)NC(=O)[C@@H]1CCCN1C(=O)CNC(=O)[C@@H](NC(=O)[C@H](C)N)C(C)C)C(=O)N[C@@H](Cc1ccc(O)cc1)C(N)=O, 23-membered ring) came to 36%.
With `C[C@@H]1N=CCNC(=O)CC[C@@H](C(=O)N[C@@H](Cc2ccc(O)cc2)C(N)=O)NC(=O)[C@H](Cc2ccccc2)NC(=O)[C@H](C)NC(=O)CNC(=O)[C@@H]2CCCN2C1=O` [H-Ala-Pro-Gly-Ala-Phe-Glu(NH-CH2-CHO)-Tyr-NH2], the ring closure, conversion by HPLC in data set [1] (from C[C@H](N)C(=O)N1CCC[C@H]1C(=O)NCC(=O)N[C@@H](C)C(=O)N[C@@H](Cc1ccccc1)C(=O)N[C@@H](CCC(=O)NCC=O)C(=O)N[C@@H](Cc1ccc(O)cc1)C(N)=O, 20-membered ring) was determined as 0%.
Regarding `NCCCC[C@H](NC(=O)[C@@H]1CCC(=O)NCC2N[C@@H](CC(N)=O)C(=O)N2[C@@H](Cc2ccccc2)C(=O)N2CCC[C@H]2C(=O)N[C@@H](Cc2ccccc2)C(=O)N1)C(N)=O` (stereo partly drawn) [H-Asn-Phe-Pro-Phe-Glu(NH-CH2-CHO)-Lys-NH2], in data set [1] (from NCCCC[C@H](NC(=O)[C@H](CCC(=O)NCC=O)NC(=O)[C@H](Cc1ccccc1)NC(=O)[C@@H]1CCCN1C(=O)[C@H](Cc1ccccc1)NC(=O)[C@@H](N)CC(N)=O)C(N)=O, 17-membered ring), the ring closure, conversion by HPLC amounted to 70%.
For `C[C@@H]1NC(=O)[C@@H]2CCCN2C(=O)CN2C(=O)[C@H](Cc3ccccc3)NC12` (stereo partly drawn) [H-Phe-Gly-Pro-Ala-H (C-terminal aldehyde)], the ring closure, conversion by HPLC in data set [1] (from C[C@@H](C=O)NC(=O)[C@@H]1CCCN1C(=O)CNC(=O)[C@@H](N)Cc1ccccc1, 9-membered ring, 24.0 h) was 0%.
Turning to AVGPFEY-NH2 [AVGPFEY], in data set [2] (HPLC and MS analysis), the “time until fully consumed in the presence of chymotrypsin” value is listed as 90 min. For the same molecule, in data set [2], the remaining at 5 min, 1.5 mM came out at 82.9%; the remaining at 0.25 h, 1.5 mM was determined as 66.3%; the remaining at 0.5 h, 1.5 mM came to 38.6%; the remaining at 0.75 h, 1.5 mM came to 20.2%. Also, in data set [2], the remaining at 1 h, 1.5 mM worked out at 10.9%; the remaining at 1.5 h, 1.5 mM worked out at 7.7%; the remaining at 2 h, 1.5 mM stood at 0%; the remaining at 8 h, 1.5 mM came to 0%. The same molecule yielded an enzyme degradation studies, peptide at time point in data set [2] of 100%. Besides, in data set [2] (chymotrypsin in Tris buffer, pH 7.5, HPLC and MS analysis, read-out: half-life in the presence of chymotrypsin), the half-life at 1.5 mM turned out to be 20 min.
Regarding `CC(C)[C@H]1C(=O)NCC(=O)N2CCC[C@H]2C(=O)N[C@@H](Cc2ccccc2)C(=O)N[C@H](C(=O)N[C@@H](Cc2ccc(O)cc2)C(N)=O)CCC(=O)NCC2N[C@@H](CCCCN)C(=O)N21` (stereo partly drawn) [H-Lys-Val-Gly-Pro-Phe-Glu(NH-CH2-CHO)-Tyr-NH2], the ring closure, conversion by HPLC in data set [1] (from CC(C)[C@H](NC(=O)[C@@H](N)CCCCN)C(=O)NCC(=O)N1CCC[C@H]1C(=O)N[C@@H](Cc1ccccc1)C(=O)N[C@@H](CCC(=O)NCC=O)C(=O)N[C@@H](Cc1ccc(O)cc1)C(N)=O, 20-membered ring) was 84%.
“cyc(Asn-Val-Gly-Pro-Phe-Glu)-Tyr (NVGPFEY; not fully specified (residue 6, bridges); printed as cyc(Asn-Val-Gly-Pro-Phe-Glu)-Tyr; also: Glu side-chain aldehyde, bridge at N, other end not in the chain) [2f]”: the “resistance to hydrolysis/degradation under different pH conditions” value in data set [4] is reported as “remained unchanged; also recorded: No degradation”.
